According to ChEMBL document CHEMBL1201862, “PubChem BioAssay data set” (2004):
Calls of active or inactive are those of the source. No stated cut-off is given here; in the data, active = IC50 of 10 µM or less and inactive = more.

How the values were obtained:
[1] = biological target: Melanin-concentrating hormone receptor 1 (Homo sapiens, UniProt Q99705); experiment: Late-stage fluorescence-based counterscreen for antagonists of the G-protein coupled receptor 7 (GPR7): cell-based dose response assay to identify antagonists of the melanin-concentrating hormone receptor 1 (MCHR1) Set 5.; format: functional
Sequence of Melanin-concentrating hormone receptor 1 (Q99705 whole entry): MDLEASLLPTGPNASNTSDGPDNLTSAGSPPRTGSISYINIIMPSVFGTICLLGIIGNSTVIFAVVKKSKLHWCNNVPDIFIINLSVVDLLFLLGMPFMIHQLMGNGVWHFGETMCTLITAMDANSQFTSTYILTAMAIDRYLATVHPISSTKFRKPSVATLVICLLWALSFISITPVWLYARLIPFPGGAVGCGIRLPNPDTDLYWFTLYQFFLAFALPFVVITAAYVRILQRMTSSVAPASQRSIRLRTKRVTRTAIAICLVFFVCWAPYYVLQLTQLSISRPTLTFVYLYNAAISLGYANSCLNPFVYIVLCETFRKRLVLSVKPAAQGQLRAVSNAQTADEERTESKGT

[2] = biological target: Neuropeptides B/W receptor type 1 (Homo sapiens, UniProt P48145); experiment: human NPBW1 receptor blockade, IC50 – cell-based, fluorescence, dose response, set 5, late-stage follow-up (AID 588566); format: functional
Sequence of Neuropeptides B/W receptor type 1 (P48145 whole entry): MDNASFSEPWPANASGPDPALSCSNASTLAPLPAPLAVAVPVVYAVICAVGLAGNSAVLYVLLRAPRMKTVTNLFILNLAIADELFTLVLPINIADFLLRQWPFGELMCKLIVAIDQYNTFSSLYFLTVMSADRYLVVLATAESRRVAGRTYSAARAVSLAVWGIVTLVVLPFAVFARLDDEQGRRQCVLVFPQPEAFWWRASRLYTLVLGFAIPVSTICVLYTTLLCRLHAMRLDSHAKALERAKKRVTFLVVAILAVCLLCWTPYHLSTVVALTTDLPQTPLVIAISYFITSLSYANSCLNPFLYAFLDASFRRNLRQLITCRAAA

- IC50 [1]: 11.4 µM (inactive)
- IC50 [2]: 1.45 µM (active)
Compound: COc1ccc(Oc2c(Cl)cnn(Cc3ccccc3C#N)c2=O)cc1
